Test results taken from article PMC4599563 (ACS Medicinal Chemistry Letters, 2015).

Biological target: mouse SR-BI (Mus musculus, UniProt Q61009)
Assay: [3H]cholesteryl ester uptake assay
Format: cell-based

Sequence of mouse SR-BI (Q61009 whole entry): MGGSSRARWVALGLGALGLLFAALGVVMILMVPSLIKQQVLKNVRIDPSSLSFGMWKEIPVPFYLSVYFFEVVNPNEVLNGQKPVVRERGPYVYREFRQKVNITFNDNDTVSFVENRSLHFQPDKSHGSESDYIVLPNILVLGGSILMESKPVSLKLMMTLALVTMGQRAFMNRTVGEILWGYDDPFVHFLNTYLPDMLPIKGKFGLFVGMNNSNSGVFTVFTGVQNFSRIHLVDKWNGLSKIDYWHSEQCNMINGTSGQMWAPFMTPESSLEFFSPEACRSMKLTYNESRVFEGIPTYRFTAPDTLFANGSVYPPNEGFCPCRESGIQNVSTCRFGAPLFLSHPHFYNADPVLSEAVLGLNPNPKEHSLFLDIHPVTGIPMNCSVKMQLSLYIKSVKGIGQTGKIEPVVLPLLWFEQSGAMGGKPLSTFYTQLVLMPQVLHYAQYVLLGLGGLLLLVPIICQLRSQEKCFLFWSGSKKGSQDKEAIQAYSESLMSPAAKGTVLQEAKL

## COc1c(NC(=O)C(=O)c2ccc(OCCN3CCOCC3)c3ccccc23)cc(C(C)(C)C)cc1NS(C)(=O)=O [ITX-5061]
  IC50: 940 nM
